Assay results reported in article PMC10420662, “Novel 7-Deazapurine Incorporating Isatin Hybrid Compounds as Protein Kinase Inhibitors: Design, Synthesis, In Silico Studies, and Antiproliferative Evaluation” (Molecules, 2023).

What was measured:
HeLa = test: In vitro cytotoxicity MTT assay; type: cell-based; details: Homo sapiens, 24 h treatment, mean ± SD of three experiments
Description: (§1) Briefly, the cytotoxicity of the synthesized derivatives and the reference compounds was assessed via the MTT assay on four cancer cell lines. The cells were cultured in an RPMI11640 medium with 10% fetal bovine serum (FBS) and an antibiotic cocktail of […] streptomycin and 100 units/mL penicillin. Cancer cell lines were seeded independently in 96-well plates at a concentration of 1.0 × 10^4 cells/well at 37 °C, 5% CO2, and 100% relative humidity for 48 h. Afterwards, the incubated cells were treated with five concentrations of the synthesized derivatives for 24 h. Then, 20 µL MTT (5 mg/mL) was added and left for 4 h before adding 100 µL dimethyl sulfoxide (DMSO) to each well to solubilize the formed formazan.

HepG2 = test: In vitro cytotoxicity MTT assay; type: cell-based; details: Homo sapiens, 24 h treatment, mean ± SD of three experiments
Description: as §1

MCF-7 = test: In vitro cytotoxicity MTT assay; type: cell-based; details: Homo sapiens, MCF7, 24 h treatment, mean ± SD of three experiments
Description: as §1

MDA-MB-231 = test: In vitro cytotoxicity MTT assay; type: cell-based; details: Homo sapiens, 24 h treatment, mean ± SD of three experiments
Description: as §1

[1] = tested on: HepG2, MCF-7, MDA-MB-231, and HeLa cell lines; test: In vitro cytotoxicity MTT assay, all tested cell lines; type: cell-based, human
Description: as §1

HepG2 cells [2] = test: Cell cycle analysis (propidium iodide flow cytometry); type: cell-based, human; details: 6.11 μM, 24 h
Description: Cell cycle analysis can determine at which phase in the cell cycle apoptosis occurs. The cell cycle is four phases consisting of G1 (growth), S (DNA synthesis), G2 (growth and preparation for mitosis), and M (mitosis). Normal cell growth and proliferation are controlled by various checkpoints at these phases. Thus, HepG2 cells were treated with 6.11 μM of compound 5 to determine at which phase apoptosis occurs in the cell cycle for 24 h (Figure 3 and Table 4).
Effect of compound 5 on cell cycle distribution was analyzed using following the method described in [17, 29]. Briefly, to determine the influence of compound 5 on the cell cycle progression of HepG2 cells, flow cytometry analysis was performed using Propidium Iodide flow cytometry kit/BD (ab139418). First, the cells were cultured at a density of 2 × 10^5/well and incubated for 24 h. Afterwards, the cells were treated with compound 5 for 24 h. Then, the cells were fixed using 70% ethanol for 12 h at 4 °C. The cells were then washed with cold PBS, incubated with 100 µL RNase A for 30 min at 37 °C, and stained with Propidium Iodide (400 µL) in the dark at room temperature for 30 min. The stained cells were identified by running Epics XLMCL™ flow cytometer equipment (Beckman Coulter, Apeldoorn, The Netherlands), and the results were interpreted using Flowing software (version 2.5.1, Turku Centre for Biotechnology, Turku, Finland).

HepG2 cells [3] = test: Apoptosis analysis (Annexin V-FITC/PI flow cytometry); type: cell-based, human
Description: Annexin V and propidium iodide (PI) reagent were used to detect the cell death in apoptosis by binding to phosphatidyl serine and DNA in plasma membrane, respectively. The cell death was examined by staining HepG2 cells with Annexin V and PI, and cellular fluorescence analysis was then performed using flow cytometry (Table 5). According to the results, compound 5 induced apoptosis by 160-fold in the late stage and by 20-fold in the early stage. […] As shown in the dot plot results, compound 5 caused exerted noticeable cell damage compared to untreated cells (Figure 4). Collectively, the results of cell cycle and apoptosis analysis confirmed the cytotoxicity effects of compound 5.
Effect of compound 5 on cell programmed cell death was analyzed using Annexin V-FITC cell apoptosis detection kit (K101-100) (BioVision Techology, Inc., Exon, PA, USA) by following the method described in [17, 30]. Briefly, in 6-well plates, HepG2 cells at a density of 2 × 10^5 were cultured and incubated for 24 h. The cultured cells were then treated with compound 5 for 24 h. Afterwards, the cells were trypsinized and gathered via centrifugation (5 min, 300× g), washed twice with PBS, and suspended in 0.1 mL of a 1X binding buffer. Then, the cells were double-stained with 5 µL Annexin V-FITC and 5 µL PI in the dark at room temperature for 15 min before they were examined using an Epics XL-MCL™ Flow Cytometer (Beckman Coulter, Apeldoorn, The Netherlands). The excitation wavelength was 488 nm while the emission wavelength was 530 nm. Finally, the data were analyzed using Flowing software (version 2.5.1, Turku Centre for Biotechnology, Turku, Finland).

caspase 3 = test: Caspase 3 level assay (ELISA) in HepG2; type: cell-based, human; details: HepG2 cells, 24 h, vs untreated control
Description: (§2) The effect of compound 5 was also evaluated on caspase 3, caspase 9, BAX, and Bcl-2 protein levels in HepG2 (Table 6). […] Additionally, the level of Bcl-2 was reduced in the treated cells (0.18-fold) compared to untreated control cells.
(§3) Compound 5 effect on Caspase 3, caspase 9, BAX, and Bcl-2 levels was analyzed by following the method described in [17]. In 96-well plates, HepG2 cells were cultured and incubated for 24 h. The cells were then treated with compound 5 or 0.1% DMSO (v/v) for 24 h. Afterwards, caspase 3 and 9, BAX, and Bcl-2 levels were determined using ELISA assay kits KHO1091 (InvitrogenTM, Grand Island, NY, USA), EIA-4860 (DRU International Inc., Mountainside, NJ, USA), EIA-4487 (DRU International Inc., Mountainside, NJ, USA), and 99-0042 (InvitrogenTM, Grand Island, NY, USA), respectively, according to the manufacturers’ procedures.

caspase 9 = test: Caspase 9 level assay (ELISA) in HepG2; type: cell-based, human; details: HepG2 cells, 24 h, vs untreated control
Description: as §2, §3

BAX = BAX level assay (ELISA) in HepG2; type: cell-based, human; details: HepG2 cells, 24 h, vs untreated control
Description: as §2, §3

Bcl-2 = Bcl-2 level assay (ELISA) in HepG2; type: cell-based, human; details: HepG2 cells, 24 h, vs untreated control
Description: as §2, §3

CDK2 = CDK2 (Homo sapiens, UniProt P24941); test: Kinase inhibition assay (ELISA kit)
Description: (§4) In vitro kinase inhibition assays were assessed against CDK2, EGFR, HER2, and VEGFR2, as described in [17, 27, 28]. […] Afterwards, the wells were washed. Then, 100 µL of the prepared biotin antibody was placed into each well and left for 1 h at room temperature. The wells were washed again before adding 100 µL of streptavidin solution and left for 45 min at room temperature. Then, 100 µL of TMB substrate reagent was added after a third washing step, and the plates were left for 30 min at room temperature. Finally, 50 µL of the stop solution was added to each well and the color intensity was measured at 450 nm.

EGFR = EGFR (Homo sapiens, UniProt P00533); test: Kinase inhibition assay (ELISA kit)
EGFR, sequence (P00533 25-1210): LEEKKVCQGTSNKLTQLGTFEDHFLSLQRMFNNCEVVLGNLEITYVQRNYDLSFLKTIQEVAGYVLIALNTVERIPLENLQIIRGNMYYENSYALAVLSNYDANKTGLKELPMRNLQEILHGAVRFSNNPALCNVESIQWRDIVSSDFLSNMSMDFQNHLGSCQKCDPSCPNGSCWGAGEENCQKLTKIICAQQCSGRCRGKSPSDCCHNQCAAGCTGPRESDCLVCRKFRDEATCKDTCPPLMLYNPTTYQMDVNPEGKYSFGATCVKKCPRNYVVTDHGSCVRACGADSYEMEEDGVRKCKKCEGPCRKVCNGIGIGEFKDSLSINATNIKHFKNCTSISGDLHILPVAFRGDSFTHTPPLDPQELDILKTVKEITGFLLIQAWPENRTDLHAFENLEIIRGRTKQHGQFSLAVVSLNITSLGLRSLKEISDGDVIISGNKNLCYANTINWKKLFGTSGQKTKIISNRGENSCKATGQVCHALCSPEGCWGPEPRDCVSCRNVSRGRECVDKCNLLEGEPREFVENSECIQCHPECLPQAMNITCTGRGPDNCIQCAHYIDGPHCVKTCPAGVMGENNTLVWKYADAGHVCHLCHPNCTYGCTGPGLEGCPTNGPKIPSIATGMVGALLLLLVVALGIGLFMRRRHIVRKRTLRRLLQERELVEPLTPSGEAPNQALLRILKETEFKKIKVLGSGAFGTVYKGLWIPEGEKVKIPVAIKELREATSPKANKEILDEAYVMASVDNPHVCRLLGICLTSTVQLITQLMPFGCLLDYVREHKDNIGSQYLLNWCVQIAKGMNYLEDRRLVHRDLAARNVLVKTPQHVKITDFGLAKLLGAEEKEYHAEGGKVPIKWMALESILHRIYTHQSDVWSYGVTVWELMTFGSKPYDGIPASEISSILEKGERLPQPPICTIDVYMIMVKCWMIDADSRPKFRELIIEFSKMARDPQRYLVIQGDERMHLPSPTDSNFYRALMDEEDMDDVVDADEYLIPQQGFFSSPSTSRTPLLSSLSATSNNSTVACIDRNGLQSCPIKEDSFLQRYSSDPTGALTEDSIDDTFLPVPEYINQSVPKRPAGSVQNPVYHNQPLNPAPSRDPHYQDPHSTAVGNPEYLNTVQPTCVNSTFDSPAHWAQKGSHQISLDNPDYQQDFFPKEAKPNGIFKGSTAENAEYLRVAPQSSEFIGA
Description: as §4

HER2 = HER2 (Homo sapiens, UniProt P04626); test: Kinase inhibition assay (ELISA kit)
HER2, sequence (P04626 23-1255): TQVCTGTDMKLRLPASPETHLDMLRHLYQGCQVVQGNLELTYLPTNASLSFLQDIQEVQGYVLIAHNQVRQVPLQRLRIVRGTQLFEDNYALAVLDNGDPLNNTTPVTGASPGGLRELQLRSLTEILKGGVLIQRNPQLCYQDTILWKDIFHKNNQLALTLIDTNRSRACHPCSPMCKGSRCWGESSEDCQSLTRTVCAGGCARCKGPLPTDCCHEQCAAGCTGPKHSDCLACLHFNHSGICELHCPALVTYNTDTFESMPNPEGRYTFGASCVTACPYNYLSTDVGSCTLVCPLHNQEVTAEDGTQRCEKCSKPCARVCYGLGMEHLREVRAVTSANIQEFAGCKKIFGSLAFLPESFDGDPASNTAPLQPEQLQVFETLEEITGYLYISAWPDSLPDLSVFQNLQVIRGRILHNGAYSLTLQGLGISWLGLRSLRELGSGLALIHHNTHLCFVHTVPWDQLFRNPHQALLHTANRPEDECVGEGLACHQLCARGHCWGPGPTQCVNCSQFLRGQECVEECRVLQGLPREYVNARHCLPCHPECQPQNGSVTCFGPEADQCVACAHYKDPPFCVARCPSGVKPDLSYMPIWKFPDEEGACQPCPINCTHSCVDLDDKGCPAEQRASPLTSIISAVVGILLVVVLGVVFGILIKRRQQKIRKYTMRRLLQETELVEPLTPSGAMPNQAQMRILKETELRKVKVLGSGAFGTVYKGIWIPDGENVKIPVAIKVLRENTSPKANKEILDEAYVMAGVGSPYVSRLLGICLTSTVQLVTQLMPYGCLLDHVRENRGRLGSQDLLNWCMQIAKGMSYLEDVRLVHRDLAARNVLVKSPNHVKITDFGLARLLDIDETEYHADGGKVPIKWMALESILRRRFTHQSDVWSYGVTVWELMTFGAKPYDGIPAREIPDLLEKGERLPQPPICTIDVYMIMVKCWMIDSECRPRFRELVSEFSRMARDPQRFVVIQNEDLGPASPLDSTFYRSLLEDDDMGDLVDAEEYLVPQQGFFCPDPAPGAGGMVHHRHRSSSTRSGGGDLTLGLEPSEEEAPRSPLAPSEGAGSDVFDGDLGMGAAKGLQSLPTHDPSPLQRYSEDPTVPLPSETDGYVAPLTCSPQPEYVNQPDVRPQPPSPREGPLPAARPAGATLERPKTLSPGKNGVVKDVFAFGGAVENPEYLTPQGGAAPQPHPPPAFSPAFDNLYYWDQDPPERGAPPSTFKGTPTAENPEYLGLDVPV
Description: as §4

VEGFR2 = VEGFR2 (Homo sapiens, UniProt P35968); test: Kinase inhibition assay (ELISA kit)
VEGFR2, sequence (P35968 20-1356): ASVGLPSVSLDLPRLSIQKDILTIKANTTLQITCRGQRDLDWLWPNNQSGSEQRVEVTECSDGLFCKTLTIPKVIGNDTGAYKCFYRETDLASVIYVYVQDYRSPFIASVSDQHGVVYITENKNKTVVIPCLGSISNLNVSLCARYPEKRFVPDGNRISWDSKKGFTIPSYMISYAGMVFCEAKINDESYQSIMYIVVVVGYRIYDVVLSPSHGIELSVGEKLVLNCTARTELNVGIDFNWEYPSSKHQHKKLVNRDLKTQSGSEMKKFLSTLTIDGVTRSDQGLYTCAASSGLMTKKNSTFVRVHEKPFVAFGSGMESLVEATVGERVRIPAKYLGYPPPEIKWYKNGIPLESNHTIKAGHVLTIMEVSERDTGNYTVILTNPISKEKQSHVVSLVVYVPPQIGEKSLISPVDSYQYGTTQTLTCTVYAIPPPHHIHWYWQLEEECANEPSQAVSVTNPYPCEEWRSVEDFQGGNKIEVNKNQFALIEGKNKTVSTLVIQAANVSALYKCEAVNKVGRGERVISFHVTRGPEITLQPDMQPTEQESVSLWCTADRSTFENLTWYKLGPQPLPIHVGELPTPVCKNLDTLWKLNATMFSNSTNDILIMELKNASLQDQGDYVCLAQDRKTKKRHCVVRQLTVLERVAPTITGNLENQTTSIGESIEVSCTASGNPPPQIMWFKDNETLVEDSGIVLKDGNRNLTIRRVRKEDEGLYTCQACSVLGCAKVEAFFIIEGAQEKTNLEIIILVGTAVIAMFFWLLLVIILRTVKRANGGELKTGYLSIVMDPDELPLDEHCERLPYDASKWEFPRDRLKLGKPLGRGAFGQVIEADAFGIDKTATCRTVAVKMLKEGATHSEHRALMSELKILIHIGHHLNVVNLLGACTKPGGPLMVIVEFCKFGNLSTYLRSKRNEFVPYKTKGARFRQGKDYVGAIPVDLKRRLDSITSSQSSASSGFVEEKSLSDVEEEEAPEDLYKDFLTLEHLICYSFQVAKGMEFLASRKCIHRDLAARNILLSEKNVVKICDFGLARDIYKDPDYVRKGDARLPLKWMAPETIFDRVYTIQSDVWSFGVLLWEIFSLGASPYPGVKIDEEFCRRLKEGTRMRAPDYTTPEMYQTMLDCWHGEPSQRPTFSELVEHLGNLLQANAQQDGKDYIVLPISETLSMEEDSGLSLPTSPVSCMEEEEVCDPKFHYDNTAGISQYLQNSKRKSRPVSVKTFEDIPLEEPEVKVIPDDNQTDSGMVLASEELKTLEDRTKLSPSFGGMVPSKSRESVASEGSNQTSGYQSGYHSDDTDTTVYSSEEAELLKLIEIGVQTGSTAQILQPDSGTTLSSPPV
Description: as §4

## O=C1Nc2ccc(Cl)cc2C1=NNC(=O)c1ccc(Nc2ncnc3[nH]ccc23)cc1 [Compound 2, 4-((7H-pyrrolo[2,3-d]pyrimidin-4-yl)amino)-N′-(5-chloro-2-oxoindolin-3-ylidene)benzohydrazide]
HeLa
  IC50: 45.4 ± 2.6 µM
HepG2
  IC50: 67.4 ± 3.6 µM
MCF-7
  IC50: 72.5 ± 3.7 µM
MDA-MB-231
  IC50: 51.3 ± 2.9 µM

## O=C1Nc2ccc(F)cc2C1=NNC(=O)c1ccc(Nc2ncnc3[nH]ccc23)cc1 [Compound 3, 4-((7H-pyrrolo[2,3-d]pyrimidin-4-yl)amino)-N′-(5-fluoro-2-oxoindolin-3-ylidene)benzohydrazide]
HeLa
  IC50: 39.1 ± 2.4 µM
HepG2
  IC50: 59.3 ± 3.3 µM
MCF-7
  IC50: 63.7 ± 3.4 µM
MDA-MB-231
  IC50: 42.9 ± 2.6 µM

## O=C1Nc2ccccc2C1=NNC(=O)c1ccc(Nc2ncnc3[nH]ccc23)cc1 [Compound 1, 4-((7H-pyrrolo[2,3-d]pyrimidin-4-yl)amino)-N′-(2-oxoindolin-3-ylidene)benzohydrazide]
HeLa
  IC50: 12.4 ± 0.9 µM
HepG2
  IC50: 25.8 ± 1.9 µM
MCF-7
  IC50: 18.5 ± 1.5 µM
MDA-MB-231
  IC50: 16 ± 1.3 µM
[1]
  Antiproliferative activity (in words): moderate antiproliferative activity

## CCN(CC)CCNC(=O)c1c(C)[nH]c(/C=C2\C(=O)Nc3ccc(F)cc32)c1C [Sunitinib, reference compound]
HeLa
  IC50: 7.48 ± 0.6 µM
HepG2
  IC50: 6.82 ± 0.5 µM
MCF-7
  IC50: 5.19 ± 0.4 µM
MDA-MB-231
  IC50: 8.41 ± 0.7 µM

## COc1ccc2c(c1)C(=NNC(=O)c1ccc(Nc3ncnc4[nH]ccc34)cc1)C(=O)N2 [Compound 5, 4-((7H-pyrrolo[2,3-d]pyrimidin-4-yl)amino)-N′-(5-methoxy-2-oxoindolin-3-ylidene)benzohydrazide]
HeLa
  IC50: 1.98 ± 0.1 µM
HepG2
  IC50: 6.11 ± 0.4 µM
MCF-7
  IC50: 5.93 ± 0.3 µM
MDA-MB-231
  IC50: 2.48 ± 0.1 µM
HepG2 cells [2]
  Cell Cycle Distribution %G0-G1: 49.02%
  Cell Cycle Distribution %G2/M: 6.05%
  Cell Cycle Distribution %Pre-G1: 39.72%
  Cell Cycle Distribution %S: 44.93%
  Cell cycle arrest phase: arrested the cell cycle of HepG2 cells at G1 and S phases
HepG2 cells [3]; 24 h, Annexin V-FITC/PI
  Apoptosis Early: 13.28%
  Apoptosis Late: 21.16%
  Necrosis: 5.28%
HepG2 cells [3]; compared to untreated cells
  Increase in necrotic cell death: 4.75 fold
  Induction of apoptosis in the early stage: 20 fold
  Induction of apoptosis in the late stage: 160 fold
Caspase 3
  Gene Expression Fold Change Caspase 3: 7.984 fold
Caspase 3; listed as compound 5
  Gene Expression Fold Change Caspase 3: 8 fold
Caspase 9
  Gene Expression Fold Change Caspase 9: 4.853 fold
Caspase 9; listed as compound 5
  Gene Expression Fold Change Caspase 9: 5 fold
BAX
  Gene Expression Fold Change Bax: 6.13 fold
BAX; listed as compound 5
  Gene Expression Fold Change Bax: 6 fold
Bcl-2
  Gene Expression Fold Change Bcl-2: 0.184 fold
Bcl-2; listed as compound 5
  Gene Expression Fold Change Bcl-2: 0.18 fold
CDK2
  IC50: 0.131 ± 0.007 µM
EGFR
  IC50: 0.103 ± 0.006 µM
HER2
  IC50: 0.081 ± 0.002 µM
VEGFR2
  IC50: 0.178 ± 0.009 µM

## Cc1ccc2c(c1)C(=NNC(=O)c1ccc(Nc3ncnc4[nH]ccc34)cc1)C(=O)N2 [Compound 4, 4-((7H-pyrrolo[2,3-d]pyrimidin-4-yl)amino)-N′-(5-methyl-2-oxoindolin-3-ylidene)benzohydrazide]
HeLa
  IC50: 75.4 ± 3.5 µM
HepG2
  IC50: 92.7 ± 4.5 µM
MCF-7
  IC50: 80.2 ± 4.2 µM
MDA-MB-231
  IC50: 73.2 ± 3.3 µM

## COc1cccc2c1C(=O)c1c(O)c3c(c(O)c1C2=O)C[C@@](O)(C(=O)CO)C[C@@H]3O[C@H]1C[C@H](N)[C@H](O)[C@H](C)O1 [DOXORUBICIN, doxorubicin, reference compound]
HepG2
  IC50: 4.5 ± 0.2 µM
